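Following 48 hours of exposure in 96-well plates, responses at five concentrations were used to interpolate endpoints linearly. GI50 is the concentration that inhibits growth by half.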 Calls of active or inactive are those of the source. Rule as the data show it: active = GI50 up to about 1.1 µM and inactive = higher.
Experiments:
Assay in all cases: inhibition of tumour cell growth, NCI panel, 48 h
[1] = system: 786-0
[2] = system: A498
[3] = system: ACHN
[4] = system: BT-549
[5] = system: CAKI-1
[6] = system: CCRF-CEM
[7] = system: COLO 205
[8] = system: DU-145
[9] = system: EKVX
[10] = system: HCC 2998
[11] = system: HCT-116
[12] = system: HCT-15
[13] = system: HL-60
[14] = system: HOP-62
[15] = system: HOP-92
[16] = system: HT-29
[17] = system: Hs-578T
[18] = system: IGROV-1
[19] = system: K562
[20] = system: KM12
[21] = system: LOX IMVI
[22] = system: MCF7
[23] = system: MDA-MB-231
[24] = system: MDA-MB-435
[25] = system: MDA-N
[26] = system: MOLT-4
[27] = system: Malme-3M
[28] = system: NCI-H226
[29] = system: NCI-H23
[30] = system: NCI-H460
[31] = system: NCI-H522
[32] = system: OVCAR-3
[33] = system: OVCAR-4
[34] = system: OVCAR-5
[35] = system: PC-3
[36] = system: RPMI-8226
[37] = system: RXF 393
[38] = system: SF-268
[39] = system: SF-295
[40] = system: SK-MEL-28
[41] = system: SK-MEL-2
[42] = system: SK-MEL-5
[43] = system: SK-OV-3
[44] = system: SN12C
[45] = system: SNB-19
[46] = system: SR
[47] = system: SW-620
[48] = system: TK-10
[49] = system: U-251
[50] = system: UACC-257
[51] = system: UACC-62
[52] = system: UO-31
[53] = system: A549
[54] = system: M14
[55] = system: NCI/ADR-RES
[56] = system: OVCAR-8
[57] = system: SF-539
[58] = system: SNB-75
[59] = system: T47D

Compound: O=C1/C(=C/c2ccc(Br)s2)NC(=S)N1c1ccccc1
- GI50 [1]: 40.8 µM (inactive)
- GI50 [2]: 51.1 µM (inactive)
- GI50 [3]: 32.1 µM (inactive)
- GI50 [4]: 82.6 µM (inactive)
- GI50 [5]: 44.5 µM (inactive)
- GI50 [6]: > 100 µM (inactive)
- GI50 [7]: 84.9 µM (inactive)
- GI50 [8]: > 100 µM (inactive)
- GI50 [9]: > 100 µM (inactive)
- GI50 [10]: > 100 µM (inactive)
- GI50 [11]: 44.4 µM (inactive)
- GI50 [12]: 80.5 µM
- GI50 [13]: > 100 µM (inactive)
- GI50 [14]: 39.1 µM (inactive)
- GI50 [15]: 25.7 µM (inactive)
- GI50 [16]: > 100 µM (inactive)
- GI50 [17]: 38.6 µM (inactive)
- GI50 [18]: 69.3 µM (inactive)
- GI50 [19]: 56.8 µM (inactive)
- GI50 [20]: > 100 µM (inactive)
- GI50 [21]: > 100 µM (inactive)
- GI50 [22]: 34.5 µM (inactive)
- GI50 [23]: 34.3 µM (inactive)
- GI50 [24]: 86.3 µM (inactive)
- GI50 [25]: > 100 µM (inactive)
- GI50 [26]: > 100 µM (inactive)
- GI50 [27]: 68.1 µM (inactive)
- GI50 [28]: > 100 µM (inactive)
- GI50 [29]: > 100 µM (inactive)
- GI50 [30]: 51.5 µM (inactive)
- GI50 [31]: 46.7 µM (inactive)
- GI50 [32]: 62.4 µM (inactive)
- GI50 [33]: 27 µM (inactive)
- GI50 [34]: > 100 µM (inactive)
- GI50 [35]: > 100 µM (inactive)
- GI50 [36]: 22.5 µM (inactive)
- GI50 [37]: 30.1 µM (inactive)
- GI50 [38]: > 100 µM (inactive)
- GI50 [39]: 43.6 µM (inactive)
- GI50 [40]: > 100 µM (inactive)
- GI50 [41]: > 100 µM (inactive)
- GI50 [42]: 63.2 µM (inactive)
- GI50 [43]: 45.6 µM (inactive)
- GI50 [44]: 74.3 µM (inactive)
- GI50 [45]: 26.9 µM (inactive)
- GI50 [46]: > 100 µM (inactive)
- GI50 [47]: > 100 µM (inactive)
- GI50 [48]: > 100 µM (inactive)
- GI50 [49]: 36.6 µM (inactive)
- GI50 [50]: 65.6 µM (inactive)
- GI50 [51]: 47.2 µM (inactive)
- GI50 [52]: > 100 µM (inactive)

Compound: CCN(CC)CCNC(=O)c1cc2cc(NC(=O)c3cc4cc([N+](=O)[O-])ccc4[nH]3)ccc2[nH]1
- GI50 [1]: 2.25 µM (inactive)
- GI50 [2]: 27 µM (inactive)
- GI50 [53]: 19.3 µM (inactive)
- GI50 [3]: 35.1 µM (inactive)
- GI50 [4]: > 60.8 µM (inactive)
- GI50 [5]: > 35.6 µM (inactive)
- GI50 [7]: 5.68 µM (inactive)
- GI50 [8]: 14.2 µM (inactive)
- GI50 [9]: 4.98 µM (inactive)
- GI50 [10]: 11.2 µM (inactive)
- GI50 [11]: 2.85 µM (inactive)
- GI50 [12]: > 100 µM
- GI50 [14]: > 77.1 µM (inactive)
- GI50 [15]: 11 µM (inactive)
- GI50 [16]: 2.93 µM (inactive)
- GI50 [18]: 18.1 µM (inactive)
- GI50 [19]: 1.61 µM (inactive)
- GI50 [20]: 1.71 µM (inactive)
- GI50 [21]: 3.86 µM (inactive)
- GI50 [54]: 57.8 µM (inactive)
- GI50 [22]: 2.39 µM (inactive)
- GI50 [23]: 3.83 µM (inactive)
- GI50 [24]: 37.5 µM (inactive)
- GI50 [25]: 52.8 µM (inactive)
- GI50 [26]: 13 µM (inactive)
- GI50 [28]: 56.2 µM (inactive)
- GI50 [29]: 8.49 µM (inactive)
- GI50 [30]: 2.92 µM (inactive)
- GI50 [31]: 3.09 µM (inactive)
- GI50 [55]: > 100 µM (inactive)
- GI50 [32]: > 40.6 µM (inactive)
- GI50 [33]: > 50.4 µM (inactive)
- GI50 [34]: 69.7 µM (inactive)
- GI50 [56]: 2.99 µM (inactive)
- GI50 [35]: > 39 µM (inactive)
- GI50 [36]: 1.82 µM (inactive)
- GI50 [37]: > 43.9 µM (inactive)
- GI50 [38]: 13.6 µM (inactive)
- GI50 [39]: 27.6 µM (inactive)
- GI50 [57]: 6.43 µM (inactive)
- GI50 [40]: 25.2 µM (inactive)
- GI50 [41]: > 52.6 µM (inactive)
- GI50 [42]: 3.85 µM (inactive)
- GI50 [43]: 25.9 µM (inactive)
- GI50 [44]: > 65.2 µM (inactive)
- GI50 [45]: 49.8 µM (inactive)
- GI50 [58]: 4.89 µM (inactive)
- GI50 [46]: 7.29 µM (inactive)
- GI50 [47]: 6.11 µM (inactive)
- GI50 [59]: 18.4 µM (inactive)
- GI50 [48]: 14.2 µM (inactive)
- GI50 [49]: 1.84 µM (inactive)
- GI50 [50]: 29.4 µM (inactive)
- GI50 [51]: 32 µM (inactive)
- GI50 [52]: > 40.5 µM (inactive)

From ChEMBL document CHEMBL1201862, “PubChem BioAssay data set” (2004)
